Columns and labels:
Assay type in all cases: in vivo
[1] = system: Lolium rigidum (LOLRI); experiment: Pre-emergence herbicidal action against Lolium rigidum; conditions: 1280 g/ha; scored visually after about 3 weeks vs untreated controls; 100% = plants have died, 0% = like control plants
Description: (§1) Seeds of mono- and dicotyledonous weed plants were placed in plastic pots in sandy loam soil (doubly sown with in each case one species of mono- or dicotyledonous weed plants per pot) and covered with soil. The compounds of the invention, formulated in the form of wettable powders (WP) or as emulsion concentrates (EC), were then applied onto the surface of the covering soil as aqueous suspension or emulsion with addition of 0.5% additive at a water application rate of 600 liters per hectare (converted). After the treatment, the pots were placed in a greenhouse and kept under good growth conditions for the test plants. After about 3 weeks, the effect of the preparations was scored visually in comparison with untreated controls as percentages. For example, 100% activity=the plants have died, 0% activity=like control plants. Tables C1 to C8 below show the effects of selected compounds of the general formula (I) according to Table 1 on various harmful plants and an application rate corresponding to 1280 g/ha, which were obtained by the experimental procedure mentioned above.

[2] = system: Matricaria inodora (MATIN); experiment: Pre-emergence herbicidal action against Matricaria inodora; conditions: 1280 g/ha; scored visually after about 3 weeks vs untreated controls; 100% = plants have died, 0% = like control plants
Description: as §1

[3] = system: Setaria viridis (SETVI); experiment: Pre-emergence herbicidal action against Setaria viridis; conditions: 1280 g/ha; scored visually after about 3 weeks vs untreated controls; 100% = plants have died, 0% = like control plants
Description: as §1

[4] = system: Amaranthus retroflexus (AMARE); experiment: Pre-emergence herbicidal action against Amaranthus retroflexus; conditions: 1280 g/ha; scored visually after about 3 weeks vs untreated controls; 100% = plants have died, 0% = like control plants
Description: as §1

[5] = system: Stellaria media (STEME); experiment: Pre-emergence herbicidal action against Stellaria media; conditions: 1280 g/ha; scored visually after about 3 weeks vs untreated controls; 100% = plants have died, 0% = like control plants
Description: as §1

[6] = system: Poa annua (POAAN); experiment: Pre-emergence herbicidal action against Poa annua; conditions: 1280 g/ha; scored visually after about 3 weeks vs untreated controls; 100% = plants have died, 0% = like control plants
Description: as §1

[7] = system: Abutilon theophrasti (ABUTH); experiment: Pre-emergence herbicidal action against Abutilon theophrasti; conditions: 1280 g/ha; scored visually after about 3 weeks vs untreated controls; 100% = plants have died, 0% = like control plants
Description: as §1

[8] = system: Amaranthus retroflexus (AMARE); experiment: Post-emergence herbicidal action against Amaranthus retroflexus; conditions: 1280 g/ha; rated visually after about 3 weeks vs untreated controls; 100% = plants have died, 0% = like control plants
Experimental: (§2) Seeds of mono- and dicotyledonous weed plants were placed in plastic pots in sandy loam soil (doubly sown with in each case one species of mono- or dicotyledonous weed plants per pot), covered with soil and cultivated in a greenhouse under controlled growth conditions. 2 to 3 weeks after sowing, the test plants were treated at the one-leaf stage. The compounds of the invention, formulated in the form of wettable powders (WP) or as emulsion concentrates (EC), were applied onto the green parts of the plants as aqueous suspension or emulsion with addition of 0.5% additive at a water application rate of 600 liters per hectare (converted). After the test plants had been kept in the greenhouse under optimum growth conditions for about 3 weeks, the activity of the preparations was rated visually in comparison to untreated controls. For example, 100% activity=the plants have died, 0% activity=like control plants. Tables B1 to B8 below show the effects of selected compounds of the general formula (I) according to Table 1 on various harmful plants and an application rate corresponding to 1280 g/ha, which were obtained by the experimental procedure mentioned above.

[9] = system: Echinochloa crus-galli (ECHCG); experiment: Pre-emergence herbicidal action against Echinochloa crus-galli; conditions: 1280 g/ha; scored visually after about 3 weeks vs untreated controls; 100% = plants have died, 0% = like control plants
Description: as §1

[10] = system: Stellaria media (STEME); experiment: Post-emergence herbicidal action against Stellaria media; conditions: 1280 g/ha; rated visually after about 3 weeks vs untreated controls; 100% = plants have died, 0% = like control plants
Experimental: as §2

[11] = system: Poa annua (POAAN); experiment: Post-emergence herbicidal action against Poa annua; conditions: 1280 g/ha; rated visually after about 3 weeks vs untreated controls; 100% = plants have died, 0% = like control plants
Experimental: as §2

Row | SMILES | Pre-emergence action against Lolium rigidum (LOLRI) [1] [%] | Pre-emergence action against Matricaria inodora (MATIN) [2] [%] | Pre-emergence action against Setaria viridis (SETVI) [3] [%] | Pre-emergence action against Amaranthus retroflexus (AMARE) [4] [%] | Pre-emergence action against Stellaria media (STEME) [5] [%] | Pre-emergence action against Poa annua (POAAN) [6] [%] | Pre-emergence action against Abutilon theophrasti (ABUTH) [7] [%] | Post-emergence action against Amaranthus retroflexus (AMARE) [8] [%] | Pre-emergence action against Echinochloa crus-galli (ECHCG) [9] [%] | Post-emergence action against Stellaria media (STEME) [10] [%] | Post-emergence action against Poa annua (POAAN) [11] [%]
1 | Cc1ccc(Oc2ccc(Cl)cc2)c(Oc2ncc(C(F)(F)F)cn2)n1 [Example I-534] | 100 | 90 | 90 | 90 | 100 |  |  |  |  |  | 
2 | Cc1ccc(Cc2ccc(C)nc2Oc2ncccn2)cc1 [Example I-449] |  |  |  |  | 100 | 90 |  |  |  |  | 
3 | COc1cc(Oc2ccc(C)nc2Oc2ncc(Cl)cn2)ccc1F [Example I-509] | 90 | 100 | 90 | 100 | 100 | 100 | 100 | 100 |  |  | 
4 | Cc1ccc(Cc2ccccc2)c(Oc2ncccn2)n1 [Example I-441] | 90 | 100 | 100 | 100 | 100 | 100 | 100 | 100 | 100 | 100 | 
5 | Cc1ccc(Oc2ccccc2)c(Oc2ncccn2)n1 [Example I-522] | 90 | 90 | 100 | 90 | 100 | 100 | 100 | 100 | 100 | 100 | 90
6 | Cc1ccc(Oc2ccc(Cl)cc2)c(Oc2ncccn2)n1 [Example I-526] |  | 100 | 100 | 100 | 100 | 100 | 100 |  | 100 |  | 100
7 | Fc1ccc(Sc2cccnc2Oc2ncc(F)cn2)cc1 [Example I-154] |  | 100 | 100 | 100 | 100 | 100 |  | 100 |  |  | 
8 | Cc1ccc(Cc2ccc(F)cc2F)c(Oc2ncc(Cl)cn2)n1 [Example I-400] |  | 90 | 100 | 90 | 100 | 100 |  |  |  |  | 
9 | COc1cc(Cc2ccc(C)nc2Oc2ncccn2)ccc1F [Example I-450] | 90 | 100 | 100 | 90 | 100 | 100 | 100 | 90 | 90 |  | 
10 | COc1cc(Oc2ccc(C)nc2Oc2ncccn2)ccc1F [Example I-531] |  | 100 | 100 | 100 | 100 | 100 | 100 |  | 90 |  | 
11 | COc1cc(Cc2ccc(C)nc2Oc2ncc(F)cn2)ccc1F [Example I-439] |  |  | 100 | 90 | 100 | 100 | 100 |  | 100 | 90 | 
12 | Cc1ccc(Cc2ccc(C)nc2Oc2ncc(F)cn2)cc1 [Example I-438] |  | 100 |  |  | 100 |  | 90 | 90 |  | 90 | 
13 | Cc1ccc(Oc2ccccc2)c(Oc2ncc(C(F)(F)F)cn2)n1 [Example I-533, 2-[(6-Methyl-3-phenoxy-2-pyridyl)oxy]-5-(trifluoromethyl)pyrimidine] |  |  | 90 |  | 100 | 90 |  |  | 90 |  | 100
14 | COc1cc(Cc2ccc(C)nc2Oc2ncc(Cl)cn2)ccc1F [Example I-406] | 90 | 100 | 100 | 90 | 100 | 100 |  | 90 |  | 90 | 90
15 | COc1cc(Cc2ccc(C)nc2Oc2ncc(C(F)(F)F)cn2)ccc1F [Example I-465] | 90 |  | 90 | 100 | 90 | 100 |  | 90 |  |  | 
16 | Cc1ccc(Cc2ccc(C)nc2Oc2ncc(Cl)cn2)cc1 [Example I-405] |  |  | 100 | 100 | 100 |  |  |  |  |  | 

— patent US11834434B2, “Substituted 2-heteroaryloxypyridines and salts thereof and their use as herbicidal agents” (Bayer Aktiengesellschaft, priority 2018, dated 2023)
